This assay deals with T1, Human DPP IV (Homo sapiens, UniProt P27487).
T1 construct: Human serum containing DPP-IV enzyme was diluted finally 9- to 20-fold with assay buffer; from tissue; host or cells: human serum
Description: In Vitro DPP-IV Inhibitory Effect Measurement Test. The class given is biochemical. Particulars: human serum containing DPP-IV enzyme; substrate Glycyl-L-Proline 4-Methyl-Coumaryl-7-Amide 10 to 100 μM; room temperature; fluorescence 360/460 nm; read-out: Human DPP IV inhibiting activity IC50. The method, then: In Vitro DPP-IV Inhibitory Effect Measurement Test
Human serum containing DPP-IV enzyme was diluted finally 9- to 20-fold with assay buffer and added to a microassay plate. Each of solutions of each test compound having various concentrations was added thereto, followed by adding thereto a substrate (Glycyl-L-Proline 4-Methyl-Coumaryl-7-Amide, Peptide Laboratories Co., Ltd.) to a final concentration of 10 to 100 μM, and the reaction was carried out at room temperature. Acetic acid was added thereto to a final concentration of 0.5% to terminate the reaction, and the intensity of fluorescence at an excitation wavelength of 360 nm and a measuring wavelength of 460 nm was measured by the use of a fluorescent plate reader.

Structures can show the parent of a compound that is named as a salt.

Drawing on patent publication US7601728B2, “Bicyclic pyrrole derivatives” (Dainippon Sumitomo Pharma Co., Ltd., priority 2004, dated 2009), this text covers IC50 for 28 molecules.

T1 sequence (P27487 39-766 limits assumed): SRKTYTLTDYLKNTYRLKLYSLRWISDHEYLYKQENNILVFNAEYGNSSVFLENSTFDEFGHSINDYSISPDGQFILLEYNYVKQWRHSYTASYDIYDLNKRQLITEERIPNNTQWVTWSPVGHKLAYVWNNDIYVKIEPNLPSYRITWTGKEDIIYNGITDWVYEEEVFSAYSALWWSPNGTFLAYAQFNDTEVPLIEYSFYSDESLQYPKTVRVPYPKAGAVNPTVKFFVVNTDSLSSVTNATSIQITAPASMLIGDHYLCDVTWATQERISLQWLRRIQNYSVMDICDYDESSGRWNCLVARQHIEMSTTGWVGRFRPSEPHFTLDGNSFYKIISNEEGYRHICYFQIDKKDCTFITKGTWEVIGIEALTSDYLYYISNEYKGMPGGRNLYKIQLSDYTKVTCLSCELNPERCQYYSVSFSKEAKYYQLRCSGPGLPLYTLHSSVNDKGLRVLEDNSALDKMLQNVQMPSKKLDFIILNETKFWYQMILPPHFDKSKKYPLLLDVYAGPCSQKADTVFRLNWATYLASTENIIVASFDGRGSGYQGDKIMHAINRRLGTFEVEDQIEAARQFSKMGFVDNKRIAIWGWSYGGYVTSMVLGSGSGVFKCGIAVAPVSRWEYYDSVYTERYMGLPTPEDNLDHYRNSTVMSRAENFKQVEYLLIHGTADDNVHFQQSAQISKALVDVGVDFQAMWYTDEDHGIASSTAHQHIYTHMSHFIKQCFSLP

Turning to `CCOc1cccc(Oc2nc3c(C#N)c(N4CCC[C@@H](N)C4)n(Cc4ccccc4Cl)c3c(=O)n2C)c1` [Example 1, 6-[(3R)-3-Aminopiperidin-1-yl]-5-(2-chlorobenzyl)-2-(3-ethoxyphenoxy)-3-methyl-4-oxo-4,5-dihydro-3H-pyrrolo[3,2-d]pyrimidine-7-carbonitrile hydrochloride], the IC50 was 76 nM. Next, `Cn1c(=O)c2c(c(C#N)c(N3CCC[C@@H](N)C3)n2Cc2ccccc2Cl)n(C)c1=O` [Example 2, 6-[(3R)-3-Aminopiperidin-1-yl]-5-(2-chlorobenzyl)-1,3-dimethyl-2,4-dioxo-2,3,4,5-tetrahydro-1H-pyrrolo[3,2-d]pyrimidine-7-carbonitrile hydrochloride]: 21 nM; `Cn1c(O)nc2c(C#N)c(N3CCC[C@@H](N)C3)n(Cc3ccccc3Cl)c2c1=O` [Example 3, 6-[(3R)-3-Aminopiperidin-1-yl]-5-(2-chlorobenzyl)-2-hydroxy-3-methyl-4-oxo-4,5-dihydro-3H-pyrrolo[3,2-d]pyrimidine-7-carbonitrile hydrochloride]: 26 nM; `Cn1c(S(C)(=O)=O)nc2c(C#N)c(N3CCC[C@@H](N)C3)n(Cc3ccccc3Cl)c2c1=O` [Example 4, 6-[(3R)-3-Aminopiperidin-1-yl]-5-(2-chlorobenzyl)-3-methyl-2-(methylsulfonyl)-4-oxo-4,5-dihydro-3H-pyrrolo[3,2-d]pyrimidine-7-carbonitrile hydrochloride]: 28 nM. Turning to `Cn1c(=O)c2c(cc(N3CCC[C@@H](N)C3)n2Cc2ccccc2Cl)n(C)c1=O` [Example 5, 6-(3-Aminopiperidin-1-yl)-5-(2-chlorobenzyl)-1,3-dimethyl-1H-pyrrolo[3,2-d]pyrimidine-2,4(3H,5H)-dione hydrochloride], the IC50 stood at 15 nM. The figure for `Cn1c(=O)c2c(cc(N3CCC[C@@H](N)C3)n2Cc2cc(F)ccc2Cl)n(C)c1=O` [Example 6, 6-(3-Aminopiperidin-1-yl)-5-(2-chloro-5-fluorobenzyl)-1,3-dimethyl-1H-pyrrolo[3,2-d]pyrimidine-2,4(3H,5H)-dione hydrochloride] is 1.9 nM; for `Cn1c(Oc2ccccc2C(N)=O)nc2c(C#N)c(N3CCC[C@@H](N)C3)n(Cc3ccccc3Cl)c2c1=O` [Example 7, 2-{[6-(3-Aminopiperidin-1-yl)-5-(2-chlorobenzyl)-7-cyano-3-methyl-4-oxo-4,5-dihydro-3H-pyrrolo[3,2-d]pyrimidin-2-yl]oxy}benzamide hydrochloride] it is 60 nM; for `Cn1c(=O)c2c(cc(N3CCC[C@@H](N)C3)n2Cc2ccccc2C#N)n(C)c1=O` [Example 8] it is 7.4 nM. For the molecule `CC#CCn1c(N2CCC[C@@H](N)C2)cc2c1c(=O)n(C)c(=O)n2C` [Example 14], the IC50 amounted to 55 nM. The figure for `Cn1c(=O)n(Cc2cc3ccccc3cn2)c(=O)c2c1cc(N1CCC[C@@H](N)C1)n2Cc1cc(F)ccc1Cl` [Example 18] is 12 nM.

For `Cn1c(=O)n(CC(=O)c2ccccc2)c(=O)c2c1cc(N1CCC[C@@H](N)C1)n2Cc1cc(F)ccc1Cl` [Example 19], the 50% inhibitory concentration (IC50) was 7.1 nM. With `Cn1c(=O)[nH]c(=O)c2c1cc(N1CCC[C@@H](N)C1)n2Cc1cc(F)ccc1Cl` [Example 20], the concentration for half-maximal inhibition (IC50) was 4.3 nM. The figure for `CCOC(=O)c1c(N2CCC[C@@H](N)C2)n(Cc2ccccc2Cl)c2c(=O)n(C)c(=O)n(C)c12` [Example 24] is 44 nM; for `CN(C)C(=O)c1c(N2CCC[C@@H](N)C2)n(Cc2ccccc2Cl)c2c(=O)n(C)c(=O)n(C)c12` [Example 25] it is 7.6 nM.

`Cn1c(=O)c2c(c(C(=O)N3CCCC3)c(N3CCC[C@@H](N)C3)n2Cc2ccccc2Cl)n(C)c1=O` [Example 27]: the IC50 is 9.8 nM. The figure for `Cn1c(=O)c2c(c(C(=O)NCC(O)CO)c(N3CCC[C@@H](N)C3)n2Cc2ccccc2Cl)n(C)c1=O` (stereo partly shown) [Example 32] is 7.5 nM; for `Cn1c(=O)c2c(c(C(=O)N3CCC(O)CC3)c(N3CCC[C@@H](N)C3)n2Cc2ccccc2Cl)n(C)c1=O` [Example 33] it is 12 nM; for `Cn1c(=O)c2c(c(C(=O)NC3CCC3)c(N3CCC[C@@H](N)C3)n2Cc2cc(F)ccc2Cl)n(C)c1=O` [Example 40] it is 6.8 nM. The figure for `COCCNC(=O)c1c(N2CCC[C@@H](N)C2)n(Cc2cc(F)ccc2Cl)c2c(=O)n(C)c(=O)n(C)c12` [Example 41] is 4.1 nM; for `Cn1c(=O)c2c(c(C(=O)NCC(F)(F)F)c(N3CCC[C@@H](N)C3)n2Cc2cc(F)ccc2Cl)n(C)c1=O` [Example 42] it is 5.7 nM; for `Cn1c(=O)c2c(c(C(=O)N3CCOCC3)c(N3CCC[C@@H](N)C3)n2Cc2cc(F)ccc2Cl)n(C)c1=O` [Example 44] it is 9 nM. For `COCc1c(N2CCC[C@@H](N)C2)n(Cc2ccccc2Cl)c2c(=O)n(C)c(=O)n(C)c12` [Example 56], the IC50 was found to be 31 nM. As for `CC(=O)c1c(N2CCC[C@@H](N)C2)n(Cc2ccccc2Cl)c2c(=O)n(C)c(=O)n(C)c12` [Example 61], the IC50 was found to be 85 nM. Next, `COc1ccc(-c2c(N3CCC[C@@H](N)C3)n(Cc3ccccc3Cl)c3c(=O)n(C)c(=O)n(C)c23)cc1` [Example 62]: 56 nM; `Cn1cnc2cc(N3CCC[C@@H](N)C3)n(Cc3cc(F)ccc3Cl)c2c1=O` [Example 64]: 13 nM. As to `Cn1cnc2c(C(=O)N3CCOCC3)c(N3CCC[C@@H](N)C3)n(Cc3cc(F)ccc3Cl)c2c1=O` [Example 66], the IC50 is 5.5 nM.

In the case of `Cn1c(=O)c2c(c(C#N)c(N3CCC[C@H](N)C3)n2Cc2cc(F)ccc2Cl)n(C)c1=O` [Example 70, 6-[(3S)-3-Aminopiperidin-1-yl]-5-(2-chloro-5-fluorobenzyl)-1,3-dimethyl-2,4-dioxo-2,3,4,5-tetrahydro-1H-pyrrolo[3,2-d]pyrimidine-7-carbonitrile hydrochloride], the IC50 is 3800 nM.

In the case of `CCOC(=O)c1c(N)c(C#N)c(N2CCC[C@@H](N)C2)n1Cc1ccccc1Cl` [Example 72, Ethyl 3-amino-5-[(3R)-3-aminopiperidin-1-yl]-1-(2-chlorobenzyl)-4-cyano-1H-pyrrole-2-carboxylate hydrochloride], the IC50 amounted to 1200 nM.
